# Test results published in ChEMBL document CHEMBL1121463, “N-Acetyl-[2-(O-methyl)tyrosine]arginine-vasopressin, an interesting antagonist of the vasopressor response to vasopressin” (J Med Chem, 1980).
# Where a SMILES comes first, the peptide text is derived from it. Bridges are numbered along the chain shown (N, C = ends).
# What was measured:
# Rattus norvegicus [1] = species on record: Rattus norvegicus; experiment: The anti-oxytocic pA2 value (antagonistic) of compound was tested on isolated rat uterus (with the 0.5 mM Mg+2); type: functional; conditions: read-out: pA2 (converted)
# Rattus norvegicus [2] = species on record: Rattus norvegicus; experiment: Tested for anti-oxytocic activity against isolated rat uterus; type: functional; conditions: read-out: pA2 (converted)
# Rattus norvegicus [3] = species on record: Rattus norvegicus; experiment: Compound was tested for antidiuretic activity in rats; type: ADME, organism-based, Urine; conditions: in vivo
# Rattus norvegicus [4] = species on record: Rattus norvegicus; experiment: Compound was tested for anti-vasopressor activity against rat; Inhibitor; type: functional, organism-based
# Rattus norvegicus [5] = species on record: Rattus norvegicus; experiment: Tested for antidiuretic activity against rats; type: functional, Urine
# Rattus norvegicus [6] = species on record: Rattus norvegicus; experiment: Compound was tested for anti-vasopressor activity against rat; Weak; type: functional, organism-based
# Rattus norvegicus [7] = species on record: Rattus norvegicus; experiment: Tested for anti-oxytocic activity against isolated rat uterus; Showed both agonistic and antagonistic activities; type: functional
# Rattus norvegicus [8] = species on record: Rattus norvegicus; experiment: The vasopressor value (agonistic) of compound was tested on rat […]; type: functional
# Rattus norvegicus [9] = species on record: Rattus norvegicus; experiment: Compound was tested for anti-vasopressor activity against rat; type: functional, organism-based; conditions: read-out: pA2 (converted)
smiles,measurement,setting,value
COc1ccc(C[C@@H]2NC(=O)[C@@H](N)CSSC[C@@H](C(=O)N3CCC[C@H]3C(=O)N[C@@H](CCCN=C(N)N)C(=O)NCC(N)=O)NC(=O)[C@H](CC(N)=O)NC(=O)[C@H](CCC(N)=O)NC(=O)[C@H](Cc3ccccc3)NC2=O)cc1 [listing 1 of 2 here],Kb,Rattus norvegicus [1],457 nM
same,Kb,Rattus norvegicus [2],36.3 nM
NC(=O)CC[C@@H]1NC(=O)[C@H](Cc2ccccc2)NC(=O)[C@H](Cc2ccc(O)cc2)NC(=O)[C@@H](N)CSSC[C@@H](C(=O)N2CCC[C@H]2C(=O)N[C@@H](CCCN=C(N)N)C(=O)NCC(N)=O)NC(=O)[C@H](CC(N)=O)NC1=O (stereo in doubt; form 1) [VASOPRESSIN],Antidiuretic,Rattus norvegicus [3],323 U/mg
CC[C@H](C)[C@@H]1NC(=O)[C@@H](Cc2ccc(OC)cc2)NC(=O)[C@H](NC(C)=O)CSSC[C@@H](C(=O)N2CCC[C@@H]2C(=O)N[C@@H](CC(C)C)C(=O)NCC(N)=O)NC(=O)[C@H](CC(N)=O)NC(=O)[C@@H](CCC(N)=O)NC1=O,pA2,Rattus norvegicus [4],Inhibition
CC[C@H](C)[C@@H]1NC(=O)[C@H](Cc2ccc(OC)cc2)NC(=O)[C@@H](N)CSSC[C@@H](C(=O)N2CCC[C@H]2C(=O)N[C@@H](CC(C)C)C(=O)NCC(N)=O)NC(=O)[C@H](CC(N)=O)NC(=O)[C@H](CCC(N)=O)NC1=O,Antidiuretic,Rattus norvegicus [5],0.01 U/mg
CC[C@H](C)[C@@H]1NC(=O)[C@@H](Cc2ccc(OC)cc2)NC(=O)[C@H](N)CSSC[C@@H](C(=O)N2CCC[C@@H]2C(=O)N[C@@H](CC(C)C)C(=O)NCC(N)=O)NC(=O)[C@H](CC(N)=O)NC(=O)[C@@H](CCC(N)=O)NC1=O,pA2,Rattus norvegicus [6],Weak
same,pA2,Rattus norvegicus [7],Mixed
COc1ccc(C[C@@H]2NC(=O)[C@@H](N)CSSC[C@@H](C(=O)N3CCC[C@H]3C(=O)N[C@@H](CCCN=C(N)N)C(=O)NCC(N)=O)NC(=O)[C@H](CC(N)=O)NC(=O)[C@H](CCC(N)=O)NC(=O)[C@H](Cc3ccccc3)NC2=O)cc1 [listing 2 of 2 here],Antidiuretic,Rattus norvegicus [5],386 U/mg
same,Vasopressor activity,Rattus norvegicus [8],9.7 units/mg
CC[C@H](C)[C@@H]1NC(=O)[C@H](Cc2ccc(OC)cc2)NC(=O)[C@@H](NC(=O)CN)CSSC[C@@H](C(=O)N2CCC[C@H]2C(=O)N[C@@H](CC(C)C)C(=O)NCC(N)=O)NC(=O)[C@H](CC(N)=O)NC(=O)[C@H](CCC(N)=O)NC1=O (H-GCY(Me)IQNCPLG-NH2; disulfide 2-7),Kb,Rattus norvegicus [2],141 nM
CC[C@H](C)[C@@H]1NC(=O)[C@H](Cc2ccc(O)cc2)NC(=O)[C@@H](N)CSSC[C@@H](C(=O)N2CCC[C@H]2C(=O)N[C@@H](CC(C)C)C(=O)NCC(N)=O)NC(=O)[C@H](CC(N)=O)NC(=O)[C@H](CCC(N)=O)NC1=O [OXYTOCIN],Antidiuretic,Rattus norvegicus [3],4 U/mg
NC(=O)CC[C@@H]1NC(=O)[C@H](Cc2ccccc2)NC(=O)[C@H](Cc2ccc(O)cc2)NC(=O)[C@@H](N)CSSC[C@@H](C(=O)N2CCC[C@H]2C(=O)N[C@@H](CCCN=C(N)N)C(=O)NCC(N)=O)NC(=O)[C@H](CC(N)=O)NC1=O (stereo in doubt; form 2) [VASOPRESSIN],Antidiuretic,Rattus norvegicus [3],212 U/mg
CC[C@H](C)[C@@H]1NC(=O)[C@H](Cc2ccc(OC)cc2)NC(=O)[C@@H](NC(N)=O)CSSC[C@@H](C(=O)N2CCC[C@H]2C(=O)N[C@@H](CC(C)C)C(=O)NCC(N)=O)NC(=O)[C@H](CC(N)=O)NC(=O)[C@H](CCC(N)=O)NC1=O,Kb,Rattus norvegicus [2],60.3 nM
COc1ccc(C[C@@H]2NC(=O)[C@@H](NC(C)=O)CSSC[C@@H](C(=O)N3CCC[C@H]3C(=O)N[C@@H](CCCN=C(N)N)C(=O)NCC(N)=O)NC(=O)[C@H](CC(N)=O)NC(=O)[C@H](CCC(N)=O)NC(=O)[C@H](Cc3ccccc3)NC2=O)cc1 [listing 1 of 2 here],Kb,Rattus norvegicus [1],186 nM
same,Kb,Rattus norvegicus [9],66.1 nM
same,Kb,Rattus norvegicus [2],51.3 nM
CC[C@H](C)[C@@H]1NC(=O)[C@@H](Cc2ccc(OC)cc2)NC(=O)[C@H](NC(N)=O)CSSC[C@@H](C(=O)N2CCC[C@@H]2C(=O)N[C@@H](CC(C)C)C(=O)NCC(N)=O)NC(=O)[C@H](CC(N)=O)NC(=O)[C@@H](CCC(N)=O)NC1=O,pA2,Rattus norvegicus [4],Inhibition
CC[C@H](C)[C@@H]1NC(=O)[C@H](Cc2ccc(OC)cc2)NC(=O)[C@@H](NC(C)=O)CSSC[C@@H](C(=O)N2CCC[C@H]2C(=O)N[C@@H](CC(C)C)C(=O)NCC(N)=O)NC(=O)[C@H](CC(N)=O)NC(=O)[C@H](CCC(N)=O)NC1=O,Kb,Rattus norvegicus [2],26.3 nM
COc1ccc(C[C@@H]2NC(=O)[C@@H](NC(C)=O)CSSC[C@@H](C(=O)N3CCC[C@H]3C(=O)N[C@@H](CCCN=C(N)N)C(=O)NCC(N)=O)NC(=O)[C@H](CC(N)=O)NC(=O)[C@H](CCC(N)=O)NC(=O)[C@H](Cc3ccccc3)NC2=O)cc1 [listing 2 of 2 here],Antidiuretic,Rattus norvegicus [5],0.026 U/mg
CC[C@H](C)[C@@H]1NC(=O)[C@H](Cc2ccc(OC)cc2)NC(=O)[C@@H](NC(=O)CNC)CSSC[C@@H](C(=O)N2CCC[C@H]2C(=O)N[C@@H](CC(C)C)C(=O)NCC(N)=O)NC(=O)[C@H](CC(N)=O)NC(=O)[C@H](CCC(N)=O)NC1=O,Kb,Rattus norvegicus [2],302 nM
